Drawing on patent US6211181A, “1-Benzenesulfonyl pyrrolidine derivatives as bradykinin receptor antagonists” (Fournier Industrie et Sante, priority 1995, dated 2001), this text covers inhibition for 16 compounds.

The experiment deals with T1, guinea-pig B2 receptor (Cavia porcellus, UniProt O70526).
T1 construct: Ileum segments are isolated from male guinea-pigs of the Dunkin-Hartley strain; tissue Iffa Credo, l'Arbresle, France (supplier of the animals); host or cells: ileum membranes of male Dunkin-Hartley guinea pigs
T1 sequence (O70526 1-372): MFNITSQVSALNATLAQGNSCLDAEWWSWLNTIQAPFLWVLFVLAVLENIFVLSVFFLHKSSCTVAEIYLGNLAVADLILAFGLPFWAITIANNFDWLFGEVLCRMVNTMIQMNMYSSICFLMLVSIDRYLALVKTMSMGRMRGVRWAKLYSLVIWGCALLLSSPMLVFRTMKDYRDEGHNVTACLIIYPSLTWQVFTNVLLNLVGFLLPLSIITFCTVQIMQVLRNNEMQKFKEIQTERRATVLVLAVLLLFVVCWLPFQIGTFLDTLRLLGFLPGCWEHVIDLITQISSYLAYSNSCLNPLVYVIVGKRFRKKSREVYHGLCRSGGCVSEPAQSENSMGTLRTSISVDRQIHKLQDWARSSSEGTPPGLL
Kind of experiment: [3H]-bradykinin binding to guinea-pig ileum membranes. Particulars: test compound at 10^-6 M, [3H]-bradykinin 120 pM, 90 min at 20° C., read-out: ACTIVITY % (percentage inhibition of the binding of [3H]-bradykinin). As for the experimental part:
The following pharmacological test is used: Ileum segments are isolated from male guinea-pigs of the Dunkin-Hartley strain (Iffa Credo, l'Arbresle, France) and ground in the following TES buffer: TES 25 mM, 1,10-phenanthroline 1 mM (pH 6.8), bacitracin 140 μg/ml, BSA 1 g/l. The membranes are then isolated by centrifugation (18,000 rpm; 20 min; 4° C.). The binding studies are carried out in the TES buffer using [^3 H]-bradykinin (120 pM) and 50 μg of membrane protein per test (final volume 500 μl) with an equilibrium time of 90 min at 20° C. […] The results obtained from these tests (shown as "activity") are collated in Table I below with reference to the Examples given in the description.

Counter-ions that a name gives are not always drawn.

One may read the inhibition as the relative decrease from the control value, in per cent. Take `Cc1ccc2cccc(OCc3c(Cl)ccc(S(=O)(=O)N4CCC[C@H]4C(=O)N4CCN(C(=N)N)CC4)c3Cl)c2n1` [Example 24, 1-[[3-[(2-Methylquinolin-8-yl)oxymethyl]-2,4-dichlorophenyl]sulfonyl]-2-(S)-[[4-(aminoiminomethyl)piperazin-1-yl]carbonyl]pyrrolidine dihydrochloride]: the inhibition at 1 µM came to 98%.
Consider `Cc1ccc2cccc(OCc3c(Cl)ccc(S(=O)(=O)N4CCC[C@H]4C(=O)NCCN)c3Cl)c2n1` [Example 3, 1-[[3-[(2-Methylquinolin-8-yl)oxymethyl]-2,4-dichlorophenyl]sulfonyl]-N-(2-aminoethyl)-2-(S)-pyrrolidinecarboxamide], for which the inhibition at 1 µM worked out at 100%.
For the compound `Cc1cc(C)c2cccc(OCc3c(Cl)ccc(S(=O)(=O)N4CCC[C@H]4C(=O)N4CCN(C(=N)N)CC4)c3Cl)c2n1` [Example 14, 1-[[3-[(2,4-Dimethylquinolin-8-yl)oxymethyl]-2,4-dichlorophenyl]sulfonyl]-2-(S)-[[4-(aminoiminomethyl)piperazin-1-yl]carbonyl]pyrrolidine bistrifluoroacetate], the inhibition at 1 µM worked out at 98%.
Turning to `Cc1ccc2cccc(OCc3c(Cl)ccc(S(=O)(=O)N4CCC[C@H]4C(=O)N4CC(C)N(C(=N)N)C(C)C4)c3Cl)c2n1` (stereo partly drawn) [Example 25, 1-[[3-[(2-Methylquinolin-8yl)oxymethyl]-2,4-dichlorophenyl]sulfonyl]-2-(S)-[[4-(aminoiminomethyl)-3,5-dimethylpiperazin-1-yl]carbonyl]pyrrolidine dihydrochloride], the inhibition at 1 µM was 100%.
In the case of `Cc1ccc2cccc(OCc3c(Cl)ccc(S(=O)(=O)N4CCC[C@H]4C(=O)NC4CCNCC4)c3Cl)c2n1` [Example 8, 1-[[3-[(2-Methylquinolin-8-yl)oxymethyl]-2,4-dichlorophenyl]sulfonyl]-N-(piperidin-4-yl)-2-(S)-pyrrolidinecarboxamide dihydrochloride], the inhibition at 1 µM came out at 100%.
Take `Cc1ccc2cccc(OCc3c(Cl)ccc(S(=O)(=O)N4CCC[C@H]4C(=O)NCC4CCNCC4)c3Cl)c2n1` [Example 10, 1-[[3-[(2-Methylquinolin-8-yl)oxymethyl]-2,4-dichlorophenyl]sulfonyl]-N-[(piperidin-4-yl)methyl]-2-(S)-pyrrolidinecarboxamide dihydrochloride]: the inhibition at 1 µM was determined as 100%.
The figure for `Cc1ccc2cccc(OCc3c(Cl)ccc(S(=O)(=O)N4CCC[C@H]4C(=O)N4CCN(C(=NC(C)C)NC(C)C)CC4)c3Cl)c2n1` [Example 27, 1-[[3-[(2-Methylquinolin-8-yl)oxymethyl]-2,4-dichlorophenyl]sulfonyl]-2-(S)-[[4-[(1-methylethylamino)(1-methylethylimino)methyl]piperazin-1-yl]-carbonyl]pyrrolidine dihydrochloride] is 100%; for `Cc1cc(C)c2cccc(OCc3c(Cl)ccc(S(=O)(=O)N4CCC[C@H]4C(=O)NCCNC(=N)N)c3Cl)c2n1` [Example 19, 1-[[3-[(2,4-Dimethylquinolin-8yl)oxymethyl]-2,4-dichlorophenyl]sulfonyl]-N-[2-[(aminoiminomethyl)amino]ethyl]-2-(S)-pyrrolidinecarboxamide dihydrochloride] it is 97%; for `Cc1ccc2cccc(OCc3c(Cl)ccc(S(=O)(=O)N4CCC[C@H]4C(=O)N4CCNCC4)c3Cl)c2n1` [Example 2, 1-[[3-[(2-Methylquinolin-8-yl)oxymethyl]-2,4-dichlorophenyl]sulfonyl]-2-(S)-[(piperazin-1-yl)carbonyl]pyrrolidine] it is 100%.
Consider `Cc1cc(C)c2cccc(OCc3c(Cl)ccc(S(=O)(=O)N4CCC[C@H]4C(=O)N4CCNCC4)c3Cl)c2n1` [Example 5, 1-[[3-[(2,4-Dimethylquinolin-8-yl)oxymethyl]-2,4-dichlorophenyl]sulfonyl]-2-(S)-[(piperazin-1-yl)carbonyl]pyrrolidine bistrifluoroacetate], for which the inhibition at 1 µM was found to be 100%.
The figure for `Cc1cc(C)c2cccc(OCc3c(Cl)ccc(S(=O)(=O)N4CCC[C@H]4C(=O)NCCCNC(=N)N)c3Cl)c2n1` [Example 20, 1-[[3-[(2,4-Dimethylquinolin-8-yl)oxymethyl]-2,4-dichlorophenyl]sulfonyl]-N-[3-[(aminoiminomethyl)amino]propyl]-2-(S)-pyrrolidinecarboxamide dihydrochloride] is 98%.
In the case of `Cc1cc(C)c2cccc(OCc3c(Cl)ccc(S(=O)(=O)N4C[C@H](O)C[C@H]4C(=O)N4CCN(C(=N)N)CC4)c3Cl)c2n1` [Example 15, 1-[[3-[(2,4-Dimethylquinolin-8-yl)oxymethyl]-2,4-dichlorophenyl]sulfonyl]-2-(S)-[[4-(aminoiminomethyl)piperazin-1-yl]carbonyl]-4-(R)-hydroxypyrrolidine bistrifluoroacetate], the inhibition at 1 µM is 100%.
The figure for `Cc1ccc2cccc(OCc3c(Cl)ccc(S(=O)(=O)N4CCC[C@H]4C(=O)NC4CCN(C(=N)N)CC4)c3Cl)c2n1` [Example 23, 1-[[3-[(2-Methylquinolin-8-yl)oxymethyl]-2,4-dichlorophenyl]sulfonyl]-N-[1-(aminoiminomethyl)piperidin-4-yl]-2-(S)-pyrrolidinecarboxamide dihydrochloride] is 100%; for `Cc1ccc2cccc(OCc3c(Cl)ccc(S(=O)(=O)N4CCC[C@H]4C(=O)NCC4CCN(C(=N)N)CC4)c3Cl)c2n1` [Example 22, 1-[[3-[(2-Methylquinolin-8-yl)oxymethyl]-2,4-dichlorophenyl]sulfonyl]-N-[[1-(aminoiminomethyl)piperidin-4-yl]methyl]-2-(S)-pyrrolidinecarboxamide dihydrochloride] it is 98%; for `Cc1ccc2cccc(OCc3c(Cl)ccc(S(=O)(=O)N4CCC[C@H]4C(=O)NCCNC(=N)N)c3Cl)c2n1` [Example 16, 1-[[3-[(2-Methylquinolin-8-yl)oxymethyl]-2,4-dichlorophenyl]sulfonyl]-N-[2-[(aminoiminomethyl)amino]ethyl]-2-(S)-pyrrolidinecarboxamide bistrifluoroacetate] it is 100%.
On to `Cc1ccc2cccc(OCc3c(Cl)ccc(S(=O)(=O)N4CCC[C@H]4C(=O)NCCCN)c3Cl)c2n1` [Example 9, 1-[[3-[(2-Methylquinolin-8-yl)oxymethyl]-2,4-dichlorophenyl]sulfonyl]-N-(3-aminopropyl)-2-(S)-pyrrolidinecarboxamide dihydrochloride], for which the inhibition at 1 µM worked out at 100%.
